Results: US8791098B2 (priority 2008, dated 2014)
Converted amounts (≈) assume the structure as drawn. Where two headings read alike, the source gives them in different places.

Legend:
[1] = test system: HL-60 cells; test: cells; settings: for anti-proliferation effects: HL-60, concentrations up to 100 ng/ml
Method: A given number of cells were cultivated in 96-well plates with serial dilutions of the drugs up to 100 ng/ml. Tubulysin A is used as a positive control, whereas methanol is used as a negative control. After 5 days of incubation the metabolic activities of the cells were measured using MTT-assay as described under the methods section.
The effect of pre-tubulysin 816 and 827 was tested with regard to the growth of other cell lines, including the mouse connective tissues fibroblast L929, the human lung carcinoma cell line A549, the human colon adenocarcinoma cell line SW-480, and the human histiocytic lymphoma cell line U937, in addition to the human myeloid leukemia cell line HL-60.

[2] = test system: L929; test: Anti-proliferation MTT assay (Example 2, Table 1); assay type: cell-based; settings: L929 mouse connective tissue fibroblast
[3] = test system: U937; test: Anti-proliferation MTT assay (Example 2, Table 1); assay type: cell-based; settings: U937 human histiocytic lymphoma
[4] = test system: COS-7; test: cells; assay type: cell-based, African green monkey; settings: COS-7, average of two measurements
Method: (§1) Cytotoxicity testing of pretubulysin (AU827), N-desmethyl-pretubulysin (AU816) and Tubulysin A and D was performed as follows: Cells were seeded at 6×10^3 cells per well of 96-well plates in 180 μl complete medium and directly treated with varying concentrations of (pre-)tubulysins diluted in methanol. Each compound was tested in duplicate as well as the internal methanol control. After 5 d incubation, 20 μl of 5 mg/ml MTT (Thiazolyl blue tetrazolium bromide) in PBS was added per well and it was further incubated for 2 h at 37° C. The medium was then discarded and cells were washed with 100 μl PBS before adding 100 μl 2-propanol/10 N HCl (250:1) in order to dissolve formazan granules.
(§2) The absorbance at 570 nm was measured using a microplate reader (EL808, Bio-Tek Instruments Inc.), and cell viability was expressed as percentage relative to the respective methanol control. IC50 values were obtained by plotting relative growth inhibition in % against the compound concentration on a logarithmic scale. After sigmoidal curve fitting IC50 values can be determined. The IC50[per ml] are shown in the following table (values represent the average of two measurements): […]

[5] = test system: L929; test: cells; assay type: cell-based, mouse; settings: L929, average of two measurements
Method: as §1, §2

[6] = test system: A431; test: cells; assay type: cell-based, human; settings: A431, average of two measurements
Method: as §1, §2

[7] = test system: A549; test: cells; assay type: cell-based, human; settings: A549, average of two measurements
Method: as §1, §2

[8] = test system: HEK293T; test: cells; assay type: cell-based, human; settings: average of two measurements
Method: as §1, §2

[9] = test system: HL-60; test: cells; assay type: cell-based, human; settings: HL-60, average of two measurements
Method: as §1, §2

[10] = test system: HepG2; test: cells; assay type: cell-based, human; settings: HepG2, average of two measurements
Method: as §1, §2

[11] = test system: K562; test: cells; assay type: cell-based, human; settings: K562, average of two measurements
Method: as §1, §2

[12] = test system: KB3.1; test: cells; assay type: cell-based, human; settings: KB3.1, average of two measurements
Method: as §1, §2

[13] = test system: SH-SY5Y; test: cells; assay type: cell-based, human; settings: average of two measurements
Method: as §1, §2

[14] = test system: SW480; test: cells; assay type: cell-based, human; settings: SW480, average of two measurements
Method: as §1, §2

[15] = test system: U937; test: cells; assay type: cell-based, human; settings: U937, average of two measurements
Method: as §1, §2

[16] = test system: U-2 OS human osteosarcoma cells; test: cells; assay type: cell-based; settings: average of two measurements
Method: as §1
The absorbance at 570 nm was measured using a microplate reader (EL808, Bio-Tek Instruments Inc.), and cell viability was expressed as percentage relative to the respective methanol control. IC50 values were obtained by plotting relative growth inhibition in % against the compound concentration on a logarithmic scale. After sigmoidal curve fitting IC50 values can be determined. The IC50[per ml] are shown in the following table (values represent the average of two measurements):
Similarly cytotoxicity testing of Pretubulysin-related compounds in U-2 OS human osteosarcoma cells was performed and was further compared with AU 339 and AU 954, compounds mentioned in WO2008/106080 and WO2004/046170. The IC50 values are shown in the following table (values represent the average of two measurements): […]

[17] = test system: PtK2 cells; assay type: cell-based; settings: 24 hours incubation
Method: Cell staining: Ptk2 cells were seeded on round glass coverslips (13 mm in diameter) in 4-well plates. Cells were incubated with the drugs to the given times as indicated for each experiment. For staining the microtubules and the nuclei, cells were firstly fixed with cold (−20° C.) acetone/methanol (1:1) for 10 min. For labelling the microtubules, cells were incubated with a primary monoclonal antibody against α-tubulin (1:500 Sigam) for 45 min at 37° C., followed by a secondary anti-mouse IgG antibody conjugated with Alexa488 (1:2000; Molecular probes) under the same incubations conditions. The nuclei were stained with DAPI (1 μg/ml in PBS). The cells were washed with phosphate buffer saline (PBS) between incubations. Coverslips were mounted by using Prolong Antifade (Molecular Probes) and imaged through a fluorescence microscope (LSM-Zeiss) with appropriate filter set.
Tubulysin A and D are known to induce de-polymerization of the interphase microtubules of mammalian cells and additionally induce a multi-polar spindle pool in mitotic cells (Khalil, M. et al., Chembiochem. 7, 678-683 (2006); Sasse, F., Menche, D. Nat. Chem. Biol. 3, 87-89 (2007)). Here the effect of pre-tubulysin treatment on the morphologies of microtubules and microtubules related structures in PtK2 cells was tested. PtK2 cells were seeded onto glass cover clips in 4 well plates and cultivated for 24 or 48 hours under growth conditions. The cells were then treated with different concentrations of tubulysin A, tubulysin D, pre-tubulysin-816 or pre-tubulysin-827. The control cells were treated only with equivalent amount of methanol (solvent). The cells were thin incubated for further 24 hours before they were fixed as described under the methods section. Fixed cells were then washed with PBS and finally labeled with anti-α-tubulin primary antibodies followed by anti-mouse-alexa-488 secondary antibodies to visualize the microtubules. The nuclei were stained with DAPI.

[18] = test system: cancer cell lines; settings: growth inhibition of cancer cell lines; cited from earlier work
[19] = Homo sapiens, U2OS, comparison with prior art compounds, read-out: IC50

Q: With `CC[C@H](C)[C@H](NC(=O)CN(C)C)C(=O)N(C)[C@H](CCc1nc(C(=O)N[C@H](CCC(=O)O)Cc2ccccc2)cs1)C(C)C` [pre-tubulysin-825] as the molecule, how does the anti-proliferation effects ([1]; 5 days, MTT) read?
A: The anti-proliferation effects was “no anti-proliferation effects”.

Q: And the IC50 ([1]; Homo sapiens, HL-60)?
A: The IC50 was 600 ng/mL (≈ 974 nM).

Q: For `CC[C@H](C)[C@H](NC(=O)[C@H]1CCCCN1C)C(=O)N(COC(=O)CC(C)C)[C@H](C[C@@H](OC(C)=O)c1nc(C(=O)N[C@@H](Cc2ccc(O)cc2)C[C@H](C)C(=O)O)cs1)C(C)C` [Tubulysin A, reference compound], which IC50 ([1]; HL-60, serial dilutions up to 100 ng/ml, 5 days, MTT) is on record?
A: The IC50 was 0.0019 ng/mL (≈ 0.00225 nM).

Q: And the IC50 value ([1]; HL-60 human acute myeloid leukemia (Table 1))?
A: Its IC50 value is 0.002 ng/mL (≈ 0.00237 nM).

Q: And the IC50 value [2]?
A: The IC50 value was 0.15 ng/mL (≈ 0.178 nM).

Q: And the IC50 value [3]?
A: The IC50 value was 0.002 ng/mL (≈ 0.00237 nM).

Q: What about the IC50 [4] of the same molecule?
A: Its IC50 is 0.0806 ng/mL (≈ 0.0955 nM).

Q: And the IC50 [5]?
A: The IC50 was 0.21 ng/mL (≈ 0.249 nM).

Q: What about the IC50 [6] of the same molecule?
A: The IC50 was 0.1002 ng/mL (≈ 0.119 nM).

Q: What about the IC50 [7] of the same molecule?
A: Its IC50 is 0.0856 ng/mL (≈ 0.101 nM).

Q: What about the IC50 [8] of the same molecule?
A: Its IC50 is 0.0523 ng/mL (≈ 0.062 nM).

Q: And the IC50 [9]?
A: Its IC50 is 0.0479 ng/mL (≈ 0.0567 nM).

Q: And the IC50 [10]?
A: The IC50 was 0.12 ng/mL (≈ 0.142 nM).

Q: What about the IC50 [11] of the same molecule?
A: The IC50 was 0.40 ng/mL (≈ 0.474 nM).

Q: What about the IC50 [12] of the same molecule?
A: Its IC50 is 0.16 ng/mL (≈ 0.19 nM).

Q: What about the IC50 [13] of the same molecule?
A: The IC50 was 0.21 ng/mL (≈ 0.249 nM).

Q: What about the IC50 [14] of the same molecule?
A: The IC50 was 0.0187 ng/mL (≈ 0.0222 nM).

Q: And the IC50 [15]?
A: Its IC50 is 0.0461 ng/mL (≈ 0.0546 nM).

Q: And the IC50 [16]?
A: The IC50 was 0.19 ng/mL (≈ 0.225 nM).

Q: And the IC50 ([16]; comparison with prior art compounds)?
A: Its IC50 is 0.19 ng/mL (≈ 0.225 nM).

Q: And the “concentration for complete de-polymerization (disappearance) of interphase microtubules” value [17]?
A: Its value is 500 pg/mL.

Q: Which results are given for `CC[C@H](C)[C@H](NC(=O)[C@H]1CCCCN1C)C(=O)N(C)[C@H](CCc1nc(C(=O)O)cs1)C(C)C` [pre-tubulysin-814]?
A: anti-proliferation effects ([1]; 5 days, MTT): no anti-proliferation effects; cytotoxic activity ([1]; at concentration up to 11 μg/ml, listed as Pre-tub-814): did not show any cytotoxic activity

Q: Which anti-proliferation effects ([1]; 5 days, MTT) does the source give for `CC[C@H](C)[C@H](NC(=O)[C@H]1CCCCN1C)C(=O)N(C)[C@H](CCc1nc(C(=O)N[C@@H](Cc2ccccc2)C(=O)O)cs1)C(C)C` [pre-tubulysin-815] here?
A: The anti-proliferation effects was “no anti-proliferation effects”.

Q: What about the IC50 ([1]; Homo sapiens, HL-60) of the same molecule?
A: Its IC50 is 700 ng/mL (≈ 1110 nM).

Q: For `CC[C@H](C)[C@H](NC(=O)[C@H]1CCCCN1C)C(=O)N(C)[C@H](CCc1nc(C(=O)N[C@H](/C=C(\C)C(=O)O)Cc2ccccc2)cs1)C(C)C` [AU954], which IC50 [16, 19] is on record?
A: Its IC50 is 82 ng/mL (≈ 123 nM).

Q: Which IC50 ([4]; Chlorocebus sabaeus, read-out: IC50) does the source give for `CC[C@H](C)[C@H](NC(=O)[C@H]1CCCCN1C)C(=O)N(COC(=O)CC(C)C)[C@H](C[C@@H](OC(C)=O)c1nc(C(=O)N[C@@H](Cc2ccccc2)C[C@H](C)C(=O)O)cs1)C(C)C` [Tubulysin D, reference compound] here?
A: Its IC50 is 0.0337 ng/mL (≈ 0.0407 nM).

Q: And the IC50 ([5]; Mus musculus, read-out: IC50)?
A: Its IC50 is 0.017 ng/mL (≈ 0.0205 nM).

Q: What about the IC50 ([6]; Homo sapiens, A-431, read-out: IC50) of the same molecule?
A: The IC50 was 0.0119 ng/mL (≈ 0.0144 nM).

Q: And the IC50 ([7]; Homo sapiens, read-out: IC50)?
A: Its IC50 is 0.0056 ng/mL (≈ 0.00676 nM).

Q: And the IC50 ([8]; Homo sapiens, HEK-293T, read-out: IC50)?
A: Its IC50 is 0.0104 ng/mL (≈ 0.0126 nM).

Q: What about the IC50 ([9]; Homo sapiens, read-out: IC50) of the same molecule?
A: Its IC50 is 0.0028 ng/mL (≈ 0.00338 nM).

Q: And the IC50 ([10]; Homo sapiens, read-out: IC50)?
A: The IC50 was 0.0066 ng/mL (≈ 0.00797 nM).

Q: What about the IC50 ([11]; Homo sapiens, read-out: IC50) of the same molecule?
A: The IC50 was 0.0222 ng/mL (≈ 0.0268 nM).

Q: And the IC50 ([12]; Homo sapiens, KB 3-1, read-out: IC50)?
A: The IC50 was 0.0182 ng/mL (≈ 0.022 nM).

Q: And the IC50 ([13]; Homo sapiens, read-out: IC50)?
A: The IC50 was 0.0113 ng/mL (≈ 0.0136 nM).

Q: What about the IC50 ([14]; Homo sapiens, read-out: IC50) of the same molecule?
A: Its IC50 is 0.0037 ng/mL (≈ 0.00447 nM).

Q: What about the IC50 ([15]; Homo sapiens, U-937, read-out: IC50) of the same molecule?
A: The IC50 was 0.0025 ng/mL (≈ 0.00302 nM).

Q: And the IC50 ([16]; Homo sapiens, U2OS, read-out: IC50)?
A: The IC50 was 0.0342 ng/mL (≈ 0.0413 nM).

Q: What about the IC50 [16, 19] of the same molecule?
A: The IC50 was 0.034 ng/mL (≈ 0.0411 nM).

Q: What about the “concentration for complete de-polymerization (disappearance) of interphase microtubules” value [17] of the same molecule?
A: The value was 50 pg/mL.

Q: What about the “potency relative to tubulysin A” value [18] of the same molecule?
A: The value was “approximately 10 folds”.

Q: Which IC50 [16, 19] does the source give for `CCOC(=O)/C(C)=C/[C@H](Cc1ccccc1)NC(=O)c1csc(CC[C@H](C(C)C)N(C)C(=O)[C@@H](NC(=O)[C@H]2CCCCN2C)[C@@H](C)CC)n1` [AU939] here?
A: The IC50 was 339 ng/mL (≈ 487 nM).
